According to PMC9098178, “SAR of Novel 3-Arylisoquinolinones: meta-Substitution on the Aryl Ring Dramatically Enhances Antiproliferative Activity through Binding to Microtubules” (Journal of Medicinal Chemistry, 2022):
Where two headings read alike, the source gives them in different places.

Columns and labels:
HepG2 cells = experiment: Clonogenic assay; assay type: cell-based, human; conditions: 14 days
Method: HepG2 cells were treated with varying concentrations of 2–6 added once and kept for 14 days before counting colonies and calculating surviving fraction (Figure 2).
The ability of potential anticancer agents to prevent unlimited cell division and induce reproductive cell death was assessed using clonogenic assay as previously described.[57] In brief, HepG2 cells were seeded into six-well plates at a density of 1000 single cells/well and incubated for 10–12 h to adhere. The cells were then treated with DMSO (control) or a range of concentrations of 2–6 for 14 days. Afterward, the produced colonies were washed with phosphate-buffered saline (PBS), fixed with 70% ethanol for 20 min, and stained with 0.5% (w/v) methylene blue (prepared in 70% methanol). Following washing with water and drying, colonies (≥50 cells) were manually counted. The colony-forming efficiency (CFE) of cells was calculated by dividing the number of colonies formed by the number of cells seeded for each condition. The surviving fraction was determined by dividing the CFE of the treated cells by CFE of the control cells. A survival curve was generated by plotting the log of drug concentrations versus surviving fraction.

[1] = tested on: panel of 59 cancer cell lines; experiment: NCI one-dose screen; assay type: cell-based; conditions: 10 µM, 48 h, SRB
Method: (§1) In light of this substantial change in activity between the meta and para compounds, a more comprehensive analysis of the antiproliferative activity was performed for the meta-/para-3-arylisoquinolinone pairs 2 and 3, 4, and 5, as well as 6. A panel of breast (MDA-MB-231), liver (HepG2, SNU423), lung (A549), and colon (HCT116) cancer cell lines were treated with the five 3-arylisoquinolinone analogs for 96 h followed by the SRB assay. The dose–response curves (including those for MCF-7) are presented in Figure S22, and their relevant IC50 values are listed in Table 1. […] The differential activity between meta- and para-3-arylisoquinolinones was reproduced in the National Cancer Institute (NCI) one-dose screen using a panel of 59 cancer cell lines (Figure S23).
Figure S23. NCI One-Dose Mean graphs for 3-arylisoquinolinones 4, 5 […]
In NCI one-dose screen, the 59 cell lines (classified into 9 groups) were exposed to 4, 5 and 7 at a single dose of 10 µM for 48 h followed by SRB assay. The one-dose data were reported as a mean graph of the growth percentage of treated cells, as relative to the cell number of both the no-drug control and the zero time (before adding the test agent). Values between 0 and 100 indicate growth inhibition, whereas values less than 0 indicate lethality. For instance, a value of 40 means 60% growth inhibition; 0, no growth throughout the experiment; -40, 40% lethality; and - 100, all cells are dead.1
A) One-dose mean graph for 3-arylisoquinolinone 4 (NSC number 795055)

HUVECs [2] = experiment: Endothelial tube disruption assay; assay type: cell-based, human; conditions: 16 h treatment after 4 h tube formation; concentration-dependent, more pronounced at 1 and 2 μM of 4
Method: (§2) Moreover, networks of HUVEC-based tubes were exposed for 16 h to different concentrations of 4 and 5 to assess their potential tube disruptive effects (Figure 8B). […] The disruption was more pronounced at 1 and 2 μM of 4, as evidenced by a decrease in tube junctions and formation of short distorted tubes.
(§3) Matrigel (Corning, Cat# 356237) was gently added into 96-well plates at a volume of 70 μL/well and allowed to gel at 37 °C for 30 min. A mixture of HUVECs (25 × 10^3) and DMSO, 4 (0.5, 1, 2 μM), or 5 (25 μM) was then dispensed over the gels and incubated for 16 h. Next, the wells were filled with PBS and covered with a coverslip to diminish the meniscus effect, allowing proper examination of the endothelial tube networks under a light microscope (Optika XDS-3, Italy). Bright-field images of 4x magnification were captured and then processed using Fiji ImageJ software. For the assessment of endothelial tube disruption, HUVECs at a density of 25 × 10^3 cells/well were seeded onto Matrigel and incubated for 4 h to align into tubes. The cells were then treated with DMSO, 4, or 5 for 16 h prior to the microscopic examination as mentioned above.

SNU423 = experiment: SRB antiproliferative assay, SNU423; assay type: cell-based, human; conditions: Homo sapiens
Method: as §1
All cell lines used in the study were human-derived and purchased from ATCC (Manassas, USA). Breast adenocarcinoma MCF-7 and MDA-MB-231 cell lines were cultured in DMEM. Hepatocellular carcinoma HepG2 and SNU423 cell lines were grown in MEME combined with 1% (v/v) nonessential amino acids and RPMI supplemented with 2 mM glutamine, respectively. Lung adenocarcinoma A549 and colorectal carcinoma HCT116 cells were grown in RPMI (+2 mM glutamine). All previous media were further supplemented with 10% heat-inactivated fetal bovine serum. The immortalized, normal liver THLE-3 cells were grown in BEGM (Lonza, Cat# CC-3170) onto precoated vessels according to ATCC’s instructions. Human umbilical vein endothelial cells (HUVECs) were cultured in EGM-2 (Lonza, Cat# CC-3162). All of the cells were maintained at 37 °C and 5% CO2 in a humidified incubator.
Screening of the antiproliferative activity of 3-arylisoquinolinones was performed using the SRB assay as previously described.[56] Exponentially growing HepG2, SNU423, MDA-MB-231, MCF-7, A549, HCT116, THLE-3, and HUVECs were seeded in 96-well plates at densities of 3000, 2000, 1500, 2500, 1000, 1000, 4000, and 4000 cells/well, respectively. These densities were experimentally selected so that the DMSO-treated cells (control) were approximately 80–90% confluent at the assay’s endpoint, and their optical density (OD) values fell within the assay’s linear range. […] After treatment, cell monolayers were fixed with 10% (w/v) trichloroacetic acid for 1 h at 4 °C, washed, and dried. Then, the cells were exposed to 0.4% (w/v) SRB dye (prepared in 1% (v/v) acetic acid; Botium, Cat# 80100) for 15 min followed by several 1% acetic acid washing and then drying. Finally, the cellular protein-bound SRB was thoroughly dissolved in 10 mM Tris base, and the OD values were read at 510 nm using a plate reader (μQuant Microplate Spectrophotometer, Biotek, U.K.) coupled with Gen5 software (BioTek, U.K.). Compound-induced changes in cell growth were inferred from changes in OD values. Cell growth was calculated using the following formula: cell growth (%) = (ODtest/ODcontrol) × 100.

HUVECs [3] = experiment: Endothelial cell tube formation assay; assay type: cell-based, human; conditions: 16 h, Matrigel
Method: as §2, §3

[4] = SNU-423, 96 h treatment, mean ± SEM, read-out: IC50 SNU423

Structure (SMILES)	colony formation (HepG2 cells; 0.5 or 1 μM)	inhibition of growth in NCI one-dose screen [1]	disruption of preestablished capillary-like tubes (HUVECs [2])	IC50 (SNU423; SNU-423, 24 h +drug/72 h –drug treatment, read-out: mean IC50 ± SEM, SNU423) [nM]	IC50 (SNU423; [4]) [nM]	effect on capillary-like tube formation (HUVECs [3]; 2 μM)	surviving fraction (HepG2 cells; concentrations as high as 20 μM)	effect on capillary-like tube formation (HUVECs [3]; 25 μM)
O=c1[nH]c(-c2cccc(F)c2)cc2cc(F)ccc12 [compound 4, 6-Fluoro-3-(3-fluorophenyl)isoquinolin-1(2H)-one]	No colonies were apparent	far more potent in the inhibition of growth of many of the cell lines	able to disrupt the preestablished capillary-like tubes	360 ± 10	250 ± 30	markedly suppressed tube formation		
O=c1[nH]c(-c2ccc(F)cc2)cc2cc(F)ccc12 [compound 5, 6-Fluoro-3-(4-fluorophenyl)isoquinolin-1(2H)-one]		less active	not observed		> 50000		0.5	did not significantly affect the process of tube formation
